Experimental data reported in patent US8722849B2, “Polypeptides” (Novo Nordisk A/S, priority 2011, dated 2014).
≈ marks a conversion by molar mass, not a printed value. Read-outs that look alike come from different tables or passages of the source. Starred links: 1 amine or outer side, 2 acyl side, 3 side chain; linkers in the order of their positions; H or OH if unused. Positions of bridges follow the written chain, without caps; N, C: chain ends. Residues, ends and D or L forms follow the SMILES beside them. *: point of attachment. C20 diacid = O=C(O)CCCCCCCCCCCCCCCCCCC(=O)*; γGlu = O=C(O)[C@H](CCC(=O)[*:2])N[*:1]

Tests used:
[1] = target: T1, human calcitonin receptor (Homo sapiens, UniProt P30988); assay: Assay (II)a functional CRE-luciferase assay, human calcitonin receptor; assay type: cell-based; conditions: Table 7; human calcitonin (CTa) receptor
T1 construct: expressed in transfected cells; host or cells: BHK570
T1 sequence (P30988 25-474): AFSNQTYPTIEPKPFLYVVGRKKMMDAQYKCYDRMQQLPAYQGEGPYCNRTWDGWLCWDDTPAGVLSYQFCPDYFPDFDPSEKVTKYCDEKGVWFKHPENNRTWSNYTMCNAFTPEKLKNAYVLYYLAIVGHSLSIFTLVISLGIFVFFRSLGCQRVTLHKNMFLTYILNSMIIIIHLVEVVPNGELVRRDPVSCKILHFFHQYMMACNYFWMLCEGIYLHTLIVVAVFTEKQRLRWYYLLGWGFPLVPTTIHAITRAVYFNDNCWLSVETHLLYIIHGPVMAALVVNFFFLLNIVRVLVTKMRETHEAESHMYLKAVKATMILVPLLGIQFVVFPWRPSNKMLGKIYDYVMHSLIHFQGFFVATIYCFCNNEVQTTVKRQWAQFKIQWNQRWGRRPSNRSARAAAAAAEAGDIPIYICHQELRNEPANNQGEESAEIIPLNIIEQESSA

[2] = Assay (III) ThT fibrillation assay for physical stability; assay type: physicochemical; conditions: ThT fibrillation assay
From the text: ASSAY (III)—ThT Fibrillation Assays for the Assessment of Physical Stability of Protein formulations Low physical stability of a polypeptide may lead to amyloid fibril formation, which is observed as well-ordered, thread-like macromolecular structures in the sample eventually resulting in gel formation. This has traditionally been measured by visual inspection of the sample. However, that kind of measurement is very subjective and depending on the observer. Therefore, the application of a small molecule indicator probe is much more advantageous. Thioflavin T (ThT) is such a probe and has a distinct fluorescence signature when binding to fibrils [Naiki et al. (1989) Anal. Biochem. 177, 244-249; LeVine (1999) Methods. Enzymol. […], 274-284]. The time course for fibril formation can be described by a sigmoidal curve with the following expression [Nielsen et al. (2001) Biochemistry 40, 6036-6046]: [formula] Here, F is the ThT fluorescence at the time t. The constant t0 is the time needed to reach 50% of maximum fluorescence. […] Few of those intermediates nucleate to form a template onto which further intermediates may assembly and the fibrillation proceeds. The lag-time corresponds to the interval in which the critical mass of nucleus is built up and the apparent rate constant is the rate with which the fibril itself is formed. Sample Preparation Samples were prepared freshly before each assay. Each sample composition is described in each example. The pH of the sample was adjusted to the desired value using appropriate amounts of concentrated NaOH and HClO4 or HCl. Thioflavin T was added to the samples from a stock solution in H2O to a final concentration of 1 μM. Sample aliquots of 200 μl were placed in a 96 well microtiter plate (Packard OptiPlate™-96, white polystyrene). Usually, four or eight replica of each sample (corresponding to one test condition) were placed in one column of wells. The plate was sealed with Scotch Pad (Qiagen). Incubation and Fluorescence Measurement Incubation at given temperature, shaking and measurement of the ThT fluorescence emission were done in a Fluoroskan Ascent FL fluorescence platereader or Varioskan platereader (Thermo Labsystems). The temperature was adjusted to 37° C. The orbital shaking was adjusted to 960 rpm with an amplitude of 1 mm in all the presented data. Fluorescence measurement was done using excitation through a 444 nm filter and measurement of emission through a 485 nm filter. Each run was initiated by incubating the plate at the assay temperature for 10 min. The plate was measured every 20 minutes for a desired period of time. Between each measurement, the plate was shaken and heated as described. Data Handling The measurement points were saved in Microsoft Excel format for further processing and curve drawing and fitting was performed using GraphPad Prism. The background emission from ThT in the absence of fibrils was negligible. The data points are typically a mean of four or eight samples and shown with standard deviation error bars. Only data obtained in the same experiment (i.e. samples on the same plate) are presented in the same graph ensuring a relative measure of fibrillation between experiments. The data set may be fitted to Eq. (1). However, since full sigmodial curves in this case are not always achieved during the measurement time, the degree of fibrillation is expressed as ThT fluorescence tabulated as the mean of the samples and shown with the standard deviation at various time points. Measurement of Initial and Final Concentrations The polypeptide concentration in each of the tested formulations were measured both before application in the ThT fibrillation assay (“Initial”) and after completion of the ThT fibrillation (“After ThT assay”). Concentrations were determined by reverse HPLC methods using a pramlintide standard as a reference. Before measurement after completion 150 μl was collected from each of the replica and transferred to an Eppendorf tube. […]

[3] = target: T2, human amylin receptor (amylin 3(a) receptor: human calcitonin receptor + RAMP-3) (Homo sapiens, UniProt O60896+P30988); assay: Assay (II)a functional CRE-luciferase assay, human amylin receptor; assay type: cell-based
T2 construct: expressed in transfected cells; host or cells: BHK570
T2 sequence (P30988 25-474): T1 sequence (P30988 25-474)
T2 sequence (O60896 24-148 partner): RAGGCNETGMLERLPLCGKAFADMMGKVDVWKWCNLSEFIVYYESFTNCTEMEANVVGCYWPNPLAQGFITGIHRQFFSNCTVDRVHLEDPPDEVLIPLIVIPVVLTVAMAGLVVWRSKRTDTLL

[4] = Assay (IV) determination of solubility; assay type: physicochemical
Procedure, shortened: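 Solubility is measured across pH 3.0–8.0 by mixing a ~500 nmol/ml aqueous polypeptide stock 1:1 with 100 mM glycylglycine or bistrispropane buffers. Samples stand 18 hours at room temperature, then are centrifuged and the soluble concentration is determined by HPLC.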

[5] = Table 2, BHK amylin 3(a)-receptor/CRE-luc cells
[6] = bistrispropane buffer, pH 6, pH 6.0, read-out: Solubility pH 6.0
[7] = bistrispropane buffer, pH 6.5, pH 6.5, read-out: Solubility pH 6.5
[8] = bistrispropane buffer, pH 7, pH 7.0, read-out: Solubility pH 7.0
[9] = bistrispropane buffer, pH 7.5, pH 7.5, read-out: Solubility pH 7.5
[10] = bistrispropane buffer, pH 8, pH 8.0, read-out: Solubility pH 8.0
[11] = glycylglycine buffer, pH 3, pH 3.0, read-out: Solubility pH 3.0
[12] = glycylglycine buffer, pH 4, pH 4.0, 18 hours at room temperature, Table 2, read-out: Solubility pH 4.0
[13] = glycylglycine buffer, pH 4, pH 4.0, read-out: Solubility pH 4.0
[14] = glycylglycine buffer, pH 5, pH 5.0, read-out: Solubility pH 5.0

| EC50 [1] [nM] | ThT pH 4.0 lag time (h) [2] [h] | EC50 [3, 5] [nM] | solubility at 18 h [4, 6] [µM] | solubility at 18 h [4, 7] [µM] | solubility at 18 h ([4]; bistrispropane buffer, pH 7, pH 7.0, 18 hours at room temperature, Table 3, read-out: Solubility pH 7.0) [µM] | solubility at 18 h [4, 8] [µM] | solubility at 18 h [4, 9] [µM] | solubility at 18 h [4, 10] [µM] | solubility at 18 h [4, 11] [µM] | solubility at 18 h [4, 12] [µM] | solubility at 18 h [4, 13] [µM] | solubility at 18 h [4, 14] [µM] | ThT pH 4.0 lag time [2] [h] | EC50 ([3]; Table 5) [nM] | Structure (SMILES) |
| --- | --- | --- | --- | --- | --- | --- | --- | --- | --- | --- | --- | --- | --- | --- | --- |
| 0.378 | 8.7 | 0.136 | > 200 | > 200 | > 200 | > 200 | > 200 | > 200 | > 200 | > 200 | > 200 | > 200 | – | – | CC[C@H](C)[C@H](NC(=O)[C@@H]1CCCN1C(=O)CNC(=O)[C@H](Cc1ccccc1)NC(=O)[C@H](CC(N)=O)NC(=O)[C@H](CC(N)=O)NC(=O)[C@H](CO)NC(=O)[C@H](CO)NC(=O)[C@H](Cc1c[nH]cn1)NC(=O)[C@H](Cc1c[nH]cn1)NC(=O)[C@H](CC(C)C)NC(=O)[C@H](Cc1ccccc1)NC(=O)[C@H](CCC(=O)O)NC(=O)[C@H](C)NC(=O)[C@H](CC(C)C)NC(=O)[C@H](CCCNC(=N)N)NC(=O)[C@H](CCC(N)=O)NC(=O)[C@@H](NC(=O)[C@H](C)NC(=O)[C@@H]1CSSC[C@H](NC(=O)[C@H](CCC(=O)O)NC(=O)[C@H](CCCNC(=N)N)NC(=O)[C@H](CCC(=O)O)NC(=O)CC[C@H](NC(=O)CCCCCCCCCCCCCCCCCCC(=O)O)C(=O)O)C(=O)N[C@@H](CC(N)=O)C(=O)N[C@@H]([C@@H](C)O)C(=O)N[C@@H](C)C(=O)N[C@@H]([C@@H](C)O)C(=O)N1)[C@@H](C)O)C(=O)N[C@@H](CC(C)C)C(=O)N1CCC[C@H]1C(=O)N1CCC[C@H]1C(=O)N[C@H](C(=O)N[C@@H](CC(N)=O)C(=O)N[C@H](C(=O)NCC(=O)N[C@@H](CO)C(=O)N[C@@H](CC(N)=O)C(=O)N[C@H](C(=O)N1CCC[C@H]1C(N)=O)[C@@H](C)O)C(C)C)[C@@H](C)O [Example 123, N-alpha-[(S)-4-Carboxy-4-(19-carboxynonadecanoylamino)butyryl]-Glu-Arg-[Glu1,Glu14,His17,Pro37]-pramlintide] ({C20 diacid-γGlu}-ERECNTATCATQRLAEFLHHSSNNFGPILPPTNVGSNTP-NH2; disulfide 4-9 (inferred)) |
| 0.104 | >45 | 0.098 | > 200 | 161 (≈ 724 µg/mL) | – | 23 (≈ 103 µg/mL) | 4 (≈ 18 µg/mL) | 2 (≈ 9 µg/mL) | > 200 | > 200 | > 200 | > 200 | >45 | – | CC[C@H](C)[C@H](NC(=O)[C@@H]1CCCN1C(=O)CNC(=O)[C@H](Cc1ccccc1)NC(=O)[C@H](CC(N)=O)NC(=O)[C@H](CC(N)=O)NC(=O)[C@H](CO)NC(=O)[C@H](CO)NC(=O)[C@H](Cc1c[nH]cn1)NC(=O)[C@H](Cc1c[nH]cn1)NC(=O)[C@H](CC(C)C)NC(=O)[C@H](Cc1ccccc1)NC(=O)[C@H](CCC(=O)O)NC(=O)[C@H](C)NC(=O)[C@H](CC(C)C)NC(=O)[C@H](CCCNC(=N)N)NC(=O)[C@H](CCC(N)=O)NC(=O)[C@@H](NC(=O)[C@H](C)NC(=O)[C@@H]1CSSC[C@H](NC(=O)[C@H](CCCCN)NC(=O)CC[C@H](NC(=O)CCCCCCCCCCCCCCCCCCC(=O)O)C(=O)O)C(=O)N[C@@H](CC(N)=O)C(=O)N[C@@H]([C@@H](C)O)C(=O)N[C@@H](C)C(=O)N[C@@H]([C@@H](C)O)C(=O)N1)[C@@H](C)O)C(=O)N[C@@H](CC(C)C)C(=O)N1CCC[C@H]1C(=O)N1CCC[C@H]1C(=O)N[C@H](C(=O)N[C@@H](CC(N)=O)C(=O)N[C@H](C(=O)NCC(=O)N[C@@H](CO)C(=O)N[C@@H](CCCNC(=N)N)C(=O)N[C@H](C(=O)N[C@@H](Cc1ccc(O)cc1)C(N)=O)[C@@H](C)O)C(C)C)[C@@H](C)O [Example 112, N-alpha-[(S)-4-Carboxy-4-(19-carboxynonadecanoylamino)butyryl]-[Glu14,His17,Arg35]-pramlintide] ({C20 diacid-γGlu}-KCNTATCATQRLAEFLHHSSNNFGPILPPTNVGSRTY-NH2; disulfide 2-7 (inferred); C-terminus assumed) |
| 0.168 | >45 | – | – | – | – | – | – | – | – | – | – | – | >45 | 0.066 | CC[C@H](C)[C@H](NC(=O)[C@@H]1CCCN1C(=O)CNC(=O)[C@H](Cc1ccccc1)NC(=O)[C@H](CC(N)=O)NC(=O)[C@H](CC(N)=O)NC(=O)[C@H](CO)NC(=O)[C@H](CO)NC(=O)[C@H](Cc1c[nH]cn1)NC(=O)[C@H](CCCNC(=N)N)NC(=O)[C@H](CC(C)C)NC(=O)[C@H](Cc1ccccc1)NC(=O)[C@H](CCC(=O)O)NC(=O)[C@H](C)NC(=O)[C@H](CC(C)C)NC(=O)[C@H](CCCNC(=N)N)NC(=O)[C@H](CCC(N)=O)NC(=O)[C@@H](NC(=O)[C@H](C)NC(=O)[C@@H]1CSSC[C@H](NC(=O)[C@H](CCCNC(=N)N)NC(=O)[C@H](CCC(=O)O)NC(=O)CC[C@H](NC(=O)CCCCCCCCCCCCCCCCCCC(=O)O)C(=O)O)C(=O)N[C@@H](CC(N)=O)C(=O)N[C@@H]([C@@H](C)O)C(=O)N[C@@H](C)C(=O)N[C@@H]([C@@H](C)O)C(=O)N1)[C@@H](C)O)C(=O)N[C@@H](CC(C)C)C(=O)N1CCC[C@H]1C(=O)N1CCC[C@H]1C(=O)N[C@H](C(=O)N[C@@H](CC(N)=O)C(=O)N[C@H](C(=O)NCC(=O)N[C@@H](CO)C(=O)N[C@@H](CC(N)=O)C(=O)N[C@H](C(=O)N1CCC[C@H]1C(N)=O)[C@@H](C)O)C(C)C)[C@@H](C)O [Example 156, N-alpha-[(S)-4-Carboxy-4-(19-carboxynonadecanoylamino)butyryl]-Glu-[Arg1,Glu14,Arg17,Pro37]-pramlintide] ({C20 diacid-γGlu}-ERCNTATCATQRLAEFLRHSSNNFGPILPPTNVGSNTP-NH2; disulfide 3-8 (inferred)) |
